Measurements as given in US8778973B2, “Alkene oxindole derivatives” (Hoffmann-La Roche Inc., priority 2009, dated 2014).

Test system: Recombinant human AMPK proteins (α1β1γ1, α2β1γ1, α1(1-335), α1(1-394) or α2(1-394))
Assay: Scintillation Proximity Assay (SPA) of AMPK activation
Assay type: biochemical
Settings: activator concentration for 50% of maximal enzyme activity; 50 nM recombinant AMPK, 2 μM ATP, 30° C., 2 hr
Protocol: Recombinant human AMPK α1β1γ1, α2β1γ1 or AMPK α subunit truncations α1(1-335), α1(1-394) and α2(1-394) were constructed, expressed and purified as described previously (Pang, T., Zhang, Z. S., Gu, M., Qiu, B. Y., Yu, L. F., Cao, P. R., Shao, W., Su, M. B., Li, J. Y., Nan, F. J., and Li, J. (2008)). Rat liver AMPK heterotrimer enzyme was obtained from Upstate (Billerica, Mass., U.S.A.).
Scintillation Proximity Assay
Before the Scintillation Proximity Assay (SPA) assay, 200 nM recombinant AMPK proteins (α1β1γ1, α2β1γ1, α1(1-335), α1(1-394) or α2(1-394)) were fully phosphorylated as described previously (Pang et al., 2008). SPA reactions were performed in 96-well plates at a final volume of 501 containing 20 mM Tris-HCl pH 7.5, 5 mM MgCl2, 1 mM DTT, 2 μM biotin-SAMS, 2 μM ATP, 0.2 μCi/well [γ-^33P]ATP, and various amount of activator. Reactions were initiated by the addition of 50 nM recombinant AMPK proteins to the reaction solutions and incubated at 30° C. for 2 hr. After that, reactions were terminated by the addition of 401 stop solution containing 80 μg streptavidin-coated SPA beads per well, 50 mM EDTA, 0.1% Triton X-100 in PBS, pH 7.5 and incubated for 1 hr. Finally, a 160 ul suspension solution containing 2.4 M CsCl, 50 mM EDTA, and 0.1% Triton X-100 in PBS (pH 7.5) was added to the reaction solution to suspend SPA beads completely. SPA signals were determined with a Wallac MicroBeta plate counter (PerkinElmer) 30 min later for calculation of the amount of product formed. The amount of products formed in 2 hr was plotted against activator concentrations to determine the effective concentration of the activator (EC50) required for 50% of maximal enzyme activity.
Compounds as described above have EC50 values between 0.5 uM and 50 uM, preferred compounds have EC50 values between 0.5 uM and 10 uM, particularly preferred compounds have EC50 values between 0.5 uM and 1 uM.

SMILES	EC50
O=C(O)c1cccc(CN2C(=O)/C(=C(\c3ccccc3)c3ccc(F)c(F)c3)c3ccccc32)c1 [Example 72, 3-{3-[1-(3,4-Difluoro-phenyl)-1-phenyl-meth-(E)-ylidene]-2-oxo-2,3-dihydro-indol-1-ylmethyl}-benzoic acid]	3.3 µM
CCOC(=O)COc1ccc(CN2C(=O)/C(=C(\c3ccccc3)c3ccc(Cl)cc3)c3ccccc32)cc1 [Example 36, (4-{3-[1-(4-Chloro-phenyl)-1-phenyl-meth-(E)-ylidene]-2-oxo-2,3-dihydro-indol-1-ylmethyl}-phenoxy)-acetic acid ethyl ester]	3.69 µM
COC(=O)c1cccc(CN2C(=O)/C(=C(\c3ccccc3)c3cc(Cl)cc(Cl)c3)c3ccccc32)c1 [Example 19, 3-{3-[1-(3,5-Dichloro-phenyl)-1-phenyl-meth-(E)-ylidene]-2-oxo-2,3-dihydro-indol-1-ylmethyl}-benzoic acid methyl ester]	1 µM
CC(C)/C(=C1\C(=O)N(Cc2cccc(C(=O)O)c2)c2ccccc21)c1ccc(C(F)(F)F)cc1 [Example 105, 3-{3-[2-Methyl-1-(4-trifluoromethyl-phenyl)-prop-(E)-ylidene]-2-oxo-2,3-dihydro-indol-1-ylmethyl}-benzoic acid]	2.95 µM
COC(=O)c1cccc(CN2C(=O)/C(=C(\c3ccccc3)c3ccc(C)cc3)c3ccccc32)c1 [Example 9, 3-{2-Oxo-3-[1-phenyl-1-p-tolyl-meth-(E)-ylidene]-2,3-dihydro-indol-1-ylmethyl}-benzoic acid methyl ester]	2.16 µM
COC(=O)c1cc(N2C(=O)/C(=C(\C)c3ccccc3)c3ccccc32)ccc1C [Example 3, 2-Methyl-5-{2-oxo-3-[1-phenyl-eth-(E)-ylidene]-2,3-dihydro-indol-1-yl}-benzoic acid methyl ester]	5.61 µM
CSc1ccccc1/C(=C1/C(=O)N(Cc2cccc(C(=O)O)c2)c2ccccc21)c1ccccc1 [Example 62, 3-{3-[1-(2-Methylsulfanyl-phenyl)-1-phenyl-meth-(E)-ylidene]-2-oxo-2,3-dihydro-indol-1-ylmethyl}-benzoic acid]	2.33 µM
CC(C)/C(Cc1ccc(Cl)cc1)=C1\C(=O)N(Cc2cccc(C(=O)O)c2)c2ccccc21 [Example 82, 3-{3-[1-(4-Chloro-benzyl)-2-methyl-prop-(Z)-ylidene]-2-oxo-2,3-dihydro-indol-1-ylmethyl}-benzoic acid]	1.6 µM
O=C(O)c1cccc(CN2C(=O)/C(=C(\c3ccccc3)c3ccccc3OC(F)(F)F)c3ccccc32)c1 [Example 49, 3-{2-Oxo-3-[1-phenyl-1-(2-trifluoromethoxy-phenyl)-meth-(E)-ylidene]-2,3-dihydro-indol-1-ylmethyl}-benzoic acid]	1.75 µM
COC(=O)c1cccc(CN2C(=O)/C(=C(/c3ccccc3)C(C)C)c3ccccc32)c1 [Example 85, 3-{3-[2-Methyl-1-phenyl-prop-(E)-ylidene]-2-oxo-2,3-dihydro-indol-1-ylmethyl}-benzoic acid methyl ester]	4.9 µM
O=C1/C(=C(\c2ccccc2)c2ccc(Cl)cc2)c2ccccc2N1Cc1ccc(O)cc1 [Example 43, 3-[1-(4-Chloro-phenyl)-1-phenyl-meth-(E)-ylidene]-1-(4-hydroxy-benzyl)-1,3-dihydro-indol-2-one]	3.23 µM
COC(=O)c1cccc(CN2C(=O)/C(=C(/c3ccc(Cl)cc3)C3CCCCC3)c3ccccc32)c1 [Example 87, 3-{3-[1-(4-Chloro-phenyl)-1-cyclohexyl-meth-(E)-ylidene]-2-oxo-2,3-dihydro-indol-1-ylmethyl}-benzoic acid methyl ester]	10.7 µM

More lines, in order of falling EC50, values ahead:

EC50	SMILES
10.5 µM	COC(=O)c1cccc(CN2C(=O)/C(=C(\c3ccccc3)c3ccccc3S(C)(=O)=O)c3ccccc32)c1 [Example 32, 3-{3-[1-(2-Methanesulfonyl-phenyl)-1-phenyl-meth-(E)-ylidene]-2-oxo-2,3-dihydro-indol-1-ylmethyl}-benzoic acid methyl ester]
5.89 µM	O=C(O)c1cccc(CN2C(=O)/C(=C(\c3ccccc3)c3ccc(Cl)cc3)c3cc(F)ccc32)c1 [Example 53, 3-{3-[1-(4-Chloro-phenyl)-1-phenyl-meth-(E)-ylidene]-5-fluoro-2-oxo-2,3-dihydro-indol-1-ylmethyl}-benzoic acid]
5.25 µM	C/C(=C1\C(=O)N(CC(=O)O)c2ccccc21)c1ccccc1 [Example 4, [2-Oxo-3-(1-phenyl-ethylidene)-2,3-dihydro-indol-1-yl]-acetic acid]
5.14 µM	O=C(O)c1cccc(CN2C(=O)/C(=C(\c3ccccc3)c3cc(Cl)cc(Cl)c3)c3ccccc32)c1 [Example 54, 3-{3-[1-(3,5-Dichloro-phenyl)-1-phenyl-meth-(E)-ylidene]-2-oxo-2,3-dihydro-indol-1-ylmethyl}-benzoic acid]
4.5 µM	O=C1/C(=C(/c2ccccc2)c2ccc(Cl)cc2)c2ccccc2N1Cc1cc(O)c(O)c(O)c1 [Example 42, 3-[1-(4-Chloro-phenyl)-1-phenyl-meth-(Z)-ylidene]-1-(3,4,5-trihydroxy-benzyl)-1,3-dihydro-indol-2-one]
4.49 µM	CC(C)NC(=O)c1cccc(CN2C(=O)/C(=C(\c3ccccc3)c3ccc(Cl)cc3)c3ccccc32)c1 [Example 37, 3-{3-[1-(4-Chloro-phenyl)-1-phenyl-meth-(E)-ylidene]-2-oxo-2,3-dihydro-indol-1-ylmethyl}-N-isopropyl-benzamide]
3.41 µM	O=C(O)c1cccc(CN2C(=O)/C(=C(\c3ccccc3)c3cc(C(F)(F)F)cc(C(F)(F)F)c3)c3ccccc32)c1 [Example 65, 3-{3-[1-(3,5-Bis-trifluoromethyl-phenyl)-1-phenyl-meth-(E)-ylidene]-2-oxo-2,3-dihydro-indol-1-ylmethyl}-benzoic acid]
3.11 µM	COC(=O)c1cccc(CN2C(=O)/C(=C(\c3ccccc3)c3ccc(C#N)cc3)c3ccccc32)c1 [Example 11, 3-{3-[1-(4-Cyano-phenyl)-1-phenyl-meth-(E)-ylidene]-2-oxo-2,3-dihydro-indol-1-ylmethyl}-benzoic acid methyl ester]
2.91 µM	COC(=O)c1ccc(CN2C(=O)/C(=C(\c3ccccc3)c3ccc(Cl)cc3)c3ccccc32)nc1 [Example 38, 6-{3-[1-(4-Chloro-phenyl)-1-phenyl-meth-(E)-ylidene]-2-oxo-2,3-dihydro-indol-1-ylmethyl}-nicotinic acid methyl ester]
2.47 µM	COC(=O)c1cccc(CN2C(=O)/C(=C(\c3ccccc3)c3ccc(F)c(F)c3)c3ccccc32)c1 [Example 15, 3-{3-[1-(3,4-Difluoro-phenyl)-1-phenyl-meth-(E)-ylidene]-2-oxo-2,3-dihydro-indol-1-ylmethyl}-benzoic acid methyl ester]
2.12 µM	O=C(O)c1cccc(CN2C(=O)/C(=C(/c3ccccc3)c3ccc(Cl)cc3)c3ccccc32)c1 [Example 68, 3-{3-[1-(4-Chloro-phenyl)-1-phenyl-meth-(Z)-ylidene]-2-oxo-2,3-dihydro-indol-1-ylmethyl}-benzoic acid]
1.89 µM	O=C(O)c1cccc(CN2C(=O)/C(=C(\c3ccccc3)c3ccc(F)cc3)c3ccccc32)c1 [Example 45, 3-{3-[1-(4-Fluoro-phenyl)-1-phenyl-meth-(E)-ylidene]-2-oxo-2,3-dihydro-indol-1-ylmethyl}-benzoic acid]
1.69 µM	COC(=O)c1cccc(CN2C(=O)/C(=C(/Cc3ccc(Cl)cc3)c3ccccc3)c3ccccc32)c1 [Example 79, 3-{3-[2-(4-Chloro-phenyl)-1-phenyl-eth-(Z)-ylidene]-2-oxo-2,3-dihydro-indol-1-ylmethyl}-benzoic acid methyl ester]
1.54 µM	COC(=O)c1cccc(CN2C(=O)C(=C(c3ccccc3)c3ccccc3)c3ccccc32)c1 [Example 7, 3-(3-Benzhydrylidene-2-oxo-2,3-dihydro-indol-1-ylmethyl)-benzoic acid methyl ester]
1.53 µM	COC(=O)c1cccc(CN2C(=O)/C(=C(\c3ccccc3)c3cccc(Cl)c3)c3ccccc32)c1 [Example 16, 3-{3-[1-(3-Chloro-phenyl)-1-phenyl-meth-(E)-ylidene]-2-oxo-2,3-dihydro-indol-1-ylmethyl}-benzoic acid methyl ester]
1.25 µM	COC(=O)c1cccc(CN2C(=O)/C(=C(\c3ccccc3)c3ccc(Cl)cc3)c3ccc(F)cc32)c1 [Example 26, 3-{3-[1-(4-Chloro-phenyl)-1-phenyl-meth-(E)-ylidene]-6-fluoro-2-oxo-2,3-dihydro-indol-1-ylmethyl}-benzoic acid methyl ester]
